According to US8198311B2, “Modulators of glucocorticoid receptor, AP-1, and/or NF-κB activity and use thereof” (Bristol-Myers Squibb Company, priority 2006, dated 2012):
Like-named read-outs stand apart in the source and are kept apart here.

What was measured:
[1] = target: T1, human glucocorticoid receptor (Homo sapiens, UniProt P04150); assay: Glucocorticoid Receptor Binding Assay (I), fluorescence polarization competitor kit (Fluormone GS Red); settings: purified human recombinant full-length GR
T1 construct: purified human recombinant full-length glucocorticoid receptor (2 nM); purchased Invitrogen Part # 2893
T1 sequence (P04150 1-777): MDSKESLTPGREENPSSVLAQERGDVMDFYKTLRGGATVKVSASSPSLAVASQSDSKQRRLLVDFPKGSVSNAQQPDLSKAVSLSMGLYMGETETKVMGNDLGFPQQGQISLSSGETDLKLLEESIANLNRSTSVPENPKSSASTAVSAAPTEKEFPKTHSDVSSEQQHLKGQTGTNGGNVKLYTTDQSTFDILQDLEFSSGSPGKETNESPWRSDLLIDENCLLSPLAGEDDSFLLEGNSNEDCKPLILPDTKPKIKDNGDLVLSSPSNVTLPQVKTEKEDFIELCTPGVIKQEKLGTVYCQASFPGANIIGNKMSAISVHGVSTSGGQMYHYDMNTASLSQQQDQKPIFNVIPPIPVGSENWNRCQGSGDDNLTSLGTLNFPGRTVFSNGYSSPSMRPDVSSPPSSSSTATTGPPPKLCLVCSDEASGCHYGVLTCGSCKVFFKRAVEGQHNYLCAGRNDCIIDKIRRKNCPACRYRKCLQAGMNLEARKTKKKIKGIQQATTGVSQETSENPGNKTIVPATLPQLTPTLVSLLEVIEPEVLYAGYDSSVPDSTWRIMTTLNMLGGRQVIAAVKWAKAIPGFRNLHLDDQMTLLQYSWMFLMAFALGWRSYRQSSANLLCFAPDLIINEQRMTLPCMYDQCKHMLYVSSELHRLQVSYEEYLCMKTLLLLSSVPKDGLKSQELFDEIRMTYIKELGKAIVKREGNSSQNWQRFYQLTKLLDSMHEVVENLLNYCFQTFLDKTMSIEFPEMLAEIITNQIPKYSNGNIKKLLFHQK
Description: In order to assess the affinity of test compounds for the human glucocorticoid receptor, a commercially available kit was used (Glucocorticoid Receptor Competitor Assay Kit, Invitrogen Part # 2893). Briefly, purified human recombinant full-length glucocorticoid receptor (2 nM) was mixed with fluorescently labeled glucocorticoid (1 nM Fluormone GS Red) in the presence or absence of test compound. After two hour incubation at room temperature in the dark, the fluorescence polarization (FP) of the samples was measured. […] Test compounds were analyzed in the concentration range from 8.5E-05 μM to 5 μM.

[2] = test system: AP-1 induced transcriptional activity; assay: Cellular Transrepressional Assay (AP-1 luciferase reporter in A549 cells, PMA-activated); type: cell-based; settings: pAP-1-Luc, 10 ng/ml PMA, read-out: AP-1 (EC50, nM) (Cellular Transrepression Assay)
Description: To measure the ability of test molecules to inhibit AP-1 induced transcriptional activity an A549 cell was utilized which was stably transfected with a plasmid containing 7×AP-1 DNA binding sites (pAP-1-Luc plasmid, Stratagene Co. La Jolla, Calif.) followed by the gene for luciferase. Cells were activated with 10 ng/ml of phorbol myristic acid (PMA) plus or minus test molecules for 7 hours. After 7 hours a luciferase reagent was added to measure luciferase enzymatic activity in the cell. After a 10 minute incubation of luciferase reagent with cells, luminescence was measured in a TopCount luminescence counter. Repression of AP-1 activity was calculated as the percentage decrease in the signal induced by PMA alone. Test molecules were analyzed in the concentration range from 0.1 nM to 40 μM. EC50s were determined by using standard curve fitting methods such as Excel fit (Microsoft Co.).

Row | Ki [1] | EC50 ([2]; Homo sapiens, A549, 7 h) | EC50 ([2]; 7 hours) | Structure (SMILES)
1 | 29 nM | 2800 nM | – | CC(C)NC(=O)NCC(C)(C)C(C)(C)c1ccc2c(cnn2-c2ccc(F)cc2)c1 [Example 118, 1-(3-(1-(4-fluorophenyl)-1H-indazol-5-yl)-2,2,3-trimethylbutyl)-3-isopropylurea]
2 | 1.2 nM | 27 nM | – | CCCS(=O)(=O)NCC(C)C(c1ccccc1)c1ccc2c(cnn2-c2ccc(F)cc2)c1 (centres unmarked) [Example 95, N-(3-(1-(4-fluorophenyl)-1H-indazol-5-yl)-2-methyl-3-phenylpropyl)propane-1-sulfonamide]
3 | 1.6 nM | 58 nM | – | CC(CNS(=O)(=O)CCC(F)(F)F)C(c1ccccc1)c1ccc2c(cnn2-c2ccc(F)cc2)c1 (centres unmarked) [Example 96, 3,3,3-trifluoro-N-(3-(1-(4-fluorophenyl)-1H-indazol-5-yl)-2-methyl-3-phenylpropyl)propane-1-sulfonamide]
4 | 1.7 nM | 8.1 nM | – | CC(C)(C)NC(=O)NCC(C)(C)C(CC1CC1)c1ccc2c(cnn2-c2ccc(F)cc2)c1 (centres unmarked) [Example 108, 1-tert-Butyl-3-(4-cyclopropyl-3-(1-(4-fluorophenyl)-1H-indazol-5-yl)-2,2-dimethylbutyl)urea]
5 | 43 nM | – | 136 nM | CC(CNC(=O)NC(C)(C)C)C(c1ccccc1)c1ccc2c(cnn2-c2ccc(F)cc2)c1 (single isomer, unassigned) [Example 97B, 1-tert-butyl-3-(3-(1-(4-fluorophenyl)-1H-indazol-5-yl)-2-methyl-3-phenylpropyl)urea]
6 | 2.1 nM | 132 nM | – | CCC(c1ccc2c(cnn2-c2ccc(F)cc2)c1)C(C)(C)CNC(=O)NC(C)(C)C (centres unmarked) [Example 101, 1-tert-butyl-3-(3-(1-(4-fluorophenyl)-1H-indazol-5-yl)-2,2-dimethylpentyl)urea]
7 | 18.3 nM | 5000 nM | – | O=S(=O)(CC(F)(F)F)NCC(c1ccccc1)C(c1ccccc1)c1ccc2c(cnn2-c2ccc(F)cc2)c1 (centres unmarked) [Example 100, 2,2,2-Trifluoro-N-(3-(1-(4-fluorophenyl)-1H-indazol-5-yl)-2,3-diphenylpropyl)ethanesulfonamide]
8 | 177 nM | > 10000 nM | – | CC(C)(CNC(=O)Nc1ccccn1)C(C)(C)c1ccc2c(cnn2-c2ccc(F)cc2)c1 [Example 116, 1-(3-(1-(4-fluorophenyl)-1H-indazol-5-yl)-2,2,3-trimethylbutyl)-3-(pyridin-2-yl)urea]

The next lines start with the compound.

Row | Structure (SMILES) | Ki [1] | EC50 ([2]; Homo sapiens, A549, 7 h) | EC50 ([2]; 7 hours)
9 | CC(C)CC(c1ccc2c(cnn2-c2ccc(F)cc2)c1)C(C)(C)CNC(=O)NC(C)(C)Cc1ccc(F)cc1 (centres unmarked) [Example 54, 1-(3-(1-(4-fluorophenyl)-1H-indazol-5-yl)-2,2,5-trimethylhexyl)-3-(1-(4-fluorophenyl)-2-methylpropan-2-yl)urea] | 22 nM | 285 nM | –
10 | CC(C)CC(c1ccc2c(cnn2-c2ccc(F)cc2)c1)C(C)(C)CNC(=O)NC(c1ccccc1)c1ccccc1 (centres unmarked) [Example 73, 1-benzhydryl-3-(3-(1-(4-fluorophenyl)-1H-indazol-5-yl)-2,2,5-trimethylhexyl)urea] | 13 nM | 107 nM | –
11 | CC(CNS(=O)(=O)CC(F)(F)F)C(c1ccccc1)c1ccc2c(cnn2-c2ccc(F)cc2)c1 (single isomer, unassigned) [Example 91D, 2,2,2-trifluoro-N-(3-(1-(4-fluorophenyl)-1H-indazol-5-yl)-2-methyl-3-phenylpropyl)ethanesulfonamide] | 74 nM | – | 2500 nM
12 | CC(C)CC(c1ccc2c(cnn2-c2ccc(F)cc2)c1)C(C)(C)CNC(=O)NC(C)(C)CN (centres unmarked) [Example 41, 1-(1-amino-2-methylpropan-2-yl)-3-(3-(1-(4-fluorophenyl)-1H-indazol-5-yl)-2,2,5-trimethylhexyl)urea] | 8.1 nM | > 10000 nM | –
13 | CC(CNC(=O)CC(F)(F)F)C(c1ccccc1)c1ccc2c(cnn2-c2ccc(F)cc2)c1 (single isomer, unassigned) [Example 90A, 3,3,3-trifluoro-N-(3-(1-(4-fluorophenyl)-1H-indazol-5-yl)-2-methyl-3-phenylpropyl)propanamide] | 2.3 nM | – | 52 nM
14 | CC(C)(CNS(=O)(=O)CC(F)(F)F)[C@@H](c1ccccc1)c1ccc2c(cnn2-c2ccc(F)cc2)c1 [Example 18, (S)-2,2,2-trifluoro-N-(3-(1-(4-fluorophenyl)-1H-indazol-5-yl)-2,2-dimethyl-3-phenylpropyl)ethanesulfonamide] | 1.1 nM | 25 nM | –
15 | CC(C)CC(c1ccc2c(cnn2-c2ccc(F)cc2)c1)C(C)(C)CNC(=O)NC(C)(C)c1ccccc1 (centres unmarked) [Example 48, 1-(3-(1-(4-fluorophenyl)-1H-indazol-5-yl)-2,2,5-trimethylhexyl)-3-(2-phenylpropan-2-yl)urea] | 3.1 nM | 42 nM | –
16 | CC(C)CC(c1ccc2c(cnn2-c2ccc(F)cc2)c1)C(C)(C)CNC(=O)NCC(C)(C)C (centres unmarked) [Example 35, 1-(3-(1-(4-fluorophenyl)-1H-indazol-5-yl)-2,2,5-trimethylhexyl)-3-neopentylurea] | 2.3 nM | 159 nM | –
17 | CC(C)CC(c1ccc2c(cnn2-c2ccc(F)cc2)c1)C(C)(C)CNC(=O)N[C@@H]1CCc2ccccc21 (stereo partly drawn) [Example 71B, 1-((R)-2,3-dihydro-1H-inden-1-yl)-3-(3-(1-(4-fluorophenyl)-1H-indazol-5-yl)-2,2,5-trimethylhexyl)urea] | 6.5 nM | 511 nM | –
18 | Cc1ccc(C(C)(C)NC(=O)NCC(C)(C)C(CC(C)C)c2ccc3c(cnn3-c3ccc(F)cc3)c2)c(C)n1 (centres unmarked) [Example 52, 1-(2-(2,6-dimethylpyridin-3-yl)propan-2-yl)-3-(3-(1-(4-fluorophenyl)-1H-indazol-5-yl)-2,2,5-trimethylhexyl)urea] | 2.3 nM | 772 nM | –
19 | CC(C)CC(c1ccc2c(cnn2-c2ccc(F)cc2)c1)C(C)(C)CNC(=O)NC1CCC(C(C)(C)C)CC1 (centres unmarked) [Example 74, 1-(4-tert-butylcyclohexyl)-3-(3-(1-(4-fluorophenyl)-1H-indazol-5-yl)-2,2,5-trimethylhexyl)urea] | 26 nM | > 10000 nM | –
20 | CC(C)CC(c1ccc2[nH]ncc2c1)C(C)(C)CNC(=O)NC(C)(C)C (centres unmarked) [Example 70, 1-(3-(1H-indazol-5-yl)-2,2,5-trimethylhexyl)-3-tert-butylurea] | 44 nM | > 10000 nM | –
21 | CC(C)CC(c1ccc2c(cnn2-c2ccc(F)cc2)c1)C(C)(C)CNC(=O)C(=O)C(C)(C)C (centres unmarked) [Example 67, N-(3-(1-(4-fluorophenyl)-1H-indazol-5-yl)-2,2,5-trimethylhexyl)-3,3-dimethyl-2-oxobutanamide] | 5.6 nM | 164 nM | –
22 | CC(C)CC(c1ccc2c(cnn2-c2ccc(F)cc2)c1)C(C)(C)CNC(=O)N[C@H](C)C(C)(C)C (stereo partly drawn) [Example 44, 1-((R)-3,3-dimethylbutan-2-yl)-3-(3-(1-(4-fluorophenyl)-1H-indazol-5-yl)-2,2,5-trimethylhexyl)urea] | 2.7 nM | 54 nM | –
23 | CC(C)CC(c1ccc2c(cnn2-c2ccc(F)cc2)c1)C(C)(C)CNC(=O)NC(CO)Cc1ccc(Cl)cc1 (centres unmarked) [Example 80, 1-(1-(4-chlorophenyl)-3-hydroxypropan-2-yl)-3-(3-(1-(4-fluorophenyl)-1H-indazol-5-yl)-2,2,5-trimethylhexyl)urea] | 3 nM | 234 nM | –
24 | CC(C)CC(c1ccc2c(cnn2-c2ccc(F)cc2)c1)C(C)(C)CNC(=O)N[C@H](C)CO (stereo partly drawn) [Example 45, 1-(3-(1-(4-fluorophenyl)-1H-indazol-5-yl)-2,2,5-trimethylhexyl)-3-((R)-1-hydroxypropan-2-yl)urea] | 2.1 nM | 1540 nM | –
25 | CC(C)CC(c1ccc2c(cnn2-c2ccc(F)cc2)c1)C(C)(C)CNC(=O)NC1(CO)CCCC1 (centres unmarked) [Example 42, 1-(3-(1-(4-fluorophenyl)-1H-indazol-5-yl)-2,2,5-trimethylhexyl)-3-(1-(hydroxymethyl)cyclopentyl)urea] | 2.4 nM | 682 nM | –
